Measurements reported in patent US10933051B2, “Carbapenem compounds and compositions for the treatment of bacterial infections” (FOB Synthesis, Inc., priority 2017, dated 2021).

Tests used:
Type in all cases: cell-based
Design in all cases: unit not given here
[1] = system: E. coli ATCC10536; assay: MIC by CLSI agar/broth dilution, Test Example 1; details: Table 2
Protocol: (§1) The MIC (minimum inhibitory concentration) was determined by the CLSI (Clinical and Laboratory Standards Institute) methods. The agar dilution method for determining antimicrobial susceptibility was carried out using Mueller Hinton-II agar and the amount of inoculation was 10^4 CFU/spot. Broth dilution tests were performed using Mueller Hinton-II broth. All assays were run with the indicated control strains, available from the ATCC (American Type Culture Collection, Rockville, Md.).

[2] = system: A. baumannii 4010; assay: MIC by CLSI agar/broth dilution, Test Example 1; details: Table 2; strain produces OXA-51
Protocol: as §1

[3] = system: A. baumannii KABA 01-33; assay: MIC by CLSI agar/broth dilution, Test Example 1; details: Table 2; strain produces OXA-2, VIM-2
Protocol: as §1

[4] = system: K. pneumoniae ATCC10031; assay: MIC by CLSI agar/broth dilution, Test Example 1; details: Table 2
Protocol: as §1

[5] = system: P. aeruginosa ATCC27853; assay: MIC by CLSI agar/broth dilution, Test Example 1; details: Table 2
Protocol: as §1

[6] = system: P. aeruginosa FSPa-121; assay: Antimicrobial Susceptibility Test (CLSI), Test Example 2; details: Table 4; strain produces OXA-17
Protocol: (§2) Antimicrobial Susceptibility Test was performed by the CLSI (Clinical and Laboratory Standards Institute) methods. The agar dilution method for determining antimicrobial susceptibility was carried out using Mueller Hinton-II agar and the amount of inoculation was 10^4CFU/spot. Broth dilution tests were performed using the Mueller Hinton-II broth. All assays were run with the indicated control strains, available from the ATCC (American Type Culture Collection, Rockville, Md.).

[7] = system: A. baumannii FSAb-039; assay: as above; details: Table 4; strain produces OXA-51
Protocol: as §2

[8] = system: A. baumannii FSAb-029; assay: as above; details: Table 4; strain produces OXA-2, IMP-1
Protocol: as §2

[9] = system: K. pneumoniae ATCC BAA-1904; assay: as above; details: Table 4; strain produces KPC-3
Protocol: as §2

[10] = system: A. baumannii FSAb-065; assay: as above; details: Table 4; strain produces OXA-2, VIM-2
Protocol: as §2

[11] = system: E. coli FSEco-054; assay: as above; details: Table 4; strain produces ESBL
Protocol: as §2

[12] = system: A. baumannii FSAb-056; assay: as above; details: Table 4; strain produces OXA-23, OXA-51
Protocol: as §2

[13] = system: P. aeruginosa FSPa-102; assay: Antimicrobial Susceptibility Test (CLSI), Test Example 3; details: Table 6; strain produces IMP-1
Protocol: as §2

[14] = system: A. baumannii FSAb-141; assay: as above; details: Table 6; strain produces PER-1, OXA-23, 51, 66
Protocol: as §2

[15] = system: P. aeruginosa FSPa-141; assay: as above; details: Table 6; strain produces VIM-2
Protocol: as §2

[16] = system: A. baumannii FSAb-039; assay: as above; details: Table 6; strain produces OXA-51
Protocol: as §2

[17] = system: K. pneumoniae BAA-1904; assay: as above; details: Table 6; strain produces KPC-3
Protocol: as §2

[18] = system: A. baumannii FSAb-029; assay: as above; details: Table 6; strain produces OXA-2, IMP-1
Protocol: as §2

[19] = system: E. coli FSEco-054; assay: as above; details: Table 6; strain produces ESBL
Protocol: as §2

[20] = system: A. baumannii FSAb-056; assay: as above; details: Table 6; strain produces OXA-23, 51
Protocol: as §2

SMILES | MIC (minimum inhibitory concentration), E. coil ATCC10536 [1] | MIC (minimum inhibitory concentration), A. baumannii 4010 [2] | MIC (minimum inhibitory concentration), A. baumannii KABA 01-33 [3] | MIC (minimum inhibitory concentration), K. pneumoniae ATCC10031 [4] | MIC (minimum inhibitory concentration), P. aeruginosa ATCC27853 [5] | antimicrobial susceptibility, P. aeruginosa FSPa-121 [6] | antimicrobial susceptibility, A. baumannii FSAb-039 [7] | antimicrobial susceptibility, A. baumannii FSAb-029 [8] | antimicrobial susceptibility, K. pneumoniae BAA-1904 [9] | antimicrobial susceptibility, A. baumannii FSAb-065 [10] | antimicrobial susceptibility, E. coil FSEco-054 [11] | antimicrobial susceptibility, A. baumannii FSAb-056 [12] | antimicrobial susceptibility, Pa FSPa-102 [13] | antimicrobial susceptibility, Ab FSAb-141 [14] | antimicrobial susceptibility, Pa FSPa-141 [15] | antimicrobial susceptibility, Ab FSAb-039 [16] | antimicrobial susceptibility, Kp BAA-1904 [17] | antimicrobial susceptibility, Ab FSAb-029 [18] | antimicrobial susceptibility, Ec FSEco-054 [19] | antimicrobial susceptibility, Ab FSAb-056 [20]
C[C@@H](O)[C@H]1C(=O)N2C(C(=O)O)=C(CN(C)CCNC(=O)c3ccc(O)c(O)c3Cl)[C@H](C)[C@H]12 [Compound 1] | 0.5 | 2 | 1 | 0.063 | 4 | 2 | 2 | 1 | 8 | 1 | 1 | 2 | – | – | – | – | – | – | – | –
C[C@@H](O)[C@H]1C(=O)N2C(C(=O)O)=C(CN(C)CCNC(=O)c3cc(O)c(O)cc3Cl)[C@H](C)[C@H]12 [Compound 5] | 1 | 8 | 2 | 0.13 | 16 | 8 | 8 | 8 | 32 | 8 | 4 | 8 | – | – | – | – | – | – | – | –
C[C@@H](O)[C@H]1C(=O)N2C(C(=O)O)=C(CN(C)CCNC(=O)c3cc(O)c(O)c(Cl)c3)[C@H](C)[C@H]12 [Compound 6] | 0.5 | 4 | 1 | 0.063 | 8 | 2 | 4 | 2 | 32 | 2 | 1 | 2 | – | – | – | – | – | – | – | –
C[C@@H](O)[C@H]1C(=O)N2C(C(=O)O)=C(CN(C)CCNC(=O)c3ccc(O)c(O)c3)[C@H](C)[C@H]12 [Compound 8] | 1 | 8 | 4 | 0.5 | >32 | – | – | – | – | – | – | – | – | – | – | – | – | – | – | –
COc1ccc(C(=O)NCCN(C)CC2=C(C(=O)O)N3C(=O)[C@H]([C@@H](C)O)[C@H]3[C@H]2C)c(Cl)c1OC [Compound 15] | 32 | >32 | >32 | 1 | >32 | – | – | – | – | – | – | – | – | – | – | – | – | – | – | –
C[C@@H](O)[C@H]1C(=O)N2C(C(=O)O)=C(CN(C)CC(=O)NCCNC(=O)c3ccc(O)c(O)c3)[C@H](C)[C@H]12 [Compound 20] | 0.5 | 16 | 4 | 0.25 | 16 | – | – | – | – | – | – | – | – | – | – | – | – | – | – | –
C[C@@H](O)[C@H]1C(=O)N2C(C(=O)O)=C(CN(C)CC(=O)NCCc3ccc(O)c(O)c3)[C@H](C)[C@H]12 [Compound 22] | 2 | >32 | 32 | 0.5 | >32 | – | – | – | – | – | – | – | – | – | – | – | – | – | – | –
C[C@@H](O)[C@H]1C(=O)N2C(C(=O)O)=C(CN(C)CCNC(=O)CCc3ccc(O)c(O)c3Cl)[C@H](C)[C@H]12 [Compound 23] | 8 | >32 | 16 | 2 | >32 | – | – | – | – | – | – | – | – | – | – | – | – | – | – | –
C[C@@H](O)[C@H]1C(=O)N2C(C(=O)O)=C(CN(C)CCNC(=O)c3cc(=O)c(O)cn3O)[C@H](C)[C@H]12 [Compound 25] | 0.5 | 16 | 8 | 0.25 | 32 | – | – | – | – | – | – | – | – | – | – | – | – | – | – | –
C[C@@H](O)[C@H]1C(=O)N2C(C(=O)O)=C(CN(C)CC(=O)NCc3cc(=O)c(O)co3)[C@H](C)[C@H]12 [Compound 27] | 0.063 | 8 | 16 | 0.063 | 16 | – | – | – | – | – | – | – | – | – | – | – | – | – | – | –
COc1ccc(C(=O)NCCCN(CCCNC(=O)c2ccc(O)c(O)c2F)CC2=C(C(=O)O)N3C(=O)[C@H]([C@@H](C)O)[C@H]3[C@H]2C)c(F)c1OC [Compound 119] | – | – | – | – | – | – | – | – | – | – | – | – | >32 | 8 | >32 | 8 | >32 | 4 | 16 | 8
COc1ccc(C(=O)NCCCN(CCCNC(=O)c2ccc(OC)c(OC)c2F)CC2=C(C(=O)O)N3C(=O)[C@H]([C@@H](C)O)[C@H]3[C@H]2C)c(F)c1OC [Compound 120] | – | – | – | – | – | – | – | – | – | – | – | – | >32 | >32 | >32 | >32 | >32 | >32 | >32 | >32
